Test results: US20090082322A1, “Gender Differences in Experimental Aortic Aneurysm Formation” (THE REGENTS OF THE UNIVERSITY OF MICHIGAN, priority 2004, published 2009)

Test system: ED-1-positive macrophages / elastin in aortic wall
Test: Histology and ED-1 macrophage immunohistochemistry of elastase-perfused aortas
Assay type: in vivo, Sprague-Dawley rats
From the text: In other experiments, male rats were randomized to implantation of an estrogen pellet or sham implantation (n=13, each). The former involved the subcutaneous implantation of a 21-day slow-release 0.1-mg 17-β-estradiol pellet (Innovative Research of America, Sarasota, Fla.) in the posterior neck. Sham rats underwent the same implantation procedure without insertion of any pellet. This particular estradiol dose results in serum estradiol levels at 2 to 3 weeks of 44.7±6.1 pg/mL compared with 15.0±2.2 pg/mL in control rats (P<0.05). Rat aortas from both groups were subjected to elastase perfusion 5 days later. The aortas were then removed for study 7 or 14 days after elastase perfusion. All excised aortas were fixed in 10% formalin for 18 hours, followed by immersion in 70% ethanol for 24 hours. Aortas were then imbedded in paraffin and 4-μm sections were prepared with hematoxylin and eosin and Verhoeff-Van Gieson stains. Immunohistochemistry was undertaken after deparaffinization, rehydration, and unmasking using Trilogy (Cell Marque Corp, Hot Springs, Ariz.) in a Princess model pressure cooker (Cell Marque). Endogenous peroxidase activity was then blocked using 3% hydrogen peroxide in methanol. To help ensure that rejection was not occurring in elastase-perfused or transplanted animals, anti-T lymphocyte immunohistochemistry was performed. […]

Compound: C[C@]12CC[C@@H]3c4ccc(O)cc4CC[C@H]3[C@@H]1CC[C@@H]2O [17-β-estradiol]
- elastin fragmentation (estradiol treated male rats' aortas vs sham): less prominent
- ED-1-positive cell counts (male rats receiving estradiol, sham 5.2±0.5, P=0.0006): 1.8±0.3 cells/HPF
